Experiment [1] addresses Glutamate NMDA receptor. The experiment can be described thus: Inhibition of N-methyl-D-aspartate (NMDA) Receptor, by the displacement of [3H]MK-801 in rat brain membranes. Type of experiment: cell membranes.
The target in experiment [2] is Sodium-dependent dopamine transporter (Rattus norvegicus, UniProt P23977). The experiment can be described thus: Inhibition of [3H]- DA reuptake into rat striatal synaptosomes. Format: subcellular, Brain.
In experiment [3] the target is Norepinephrine transporter (Rattus norvegicus, UniProt Q9WTR4). Format: subcellular, Hippocampus.
The target of experiment [4] is Sodium-dependent noradrenaline transporter (Homo sapiens, UniProt P23975).
Experiment [5] has as its target T1, Sodium-dependent dopamine transporter (Homo sapiens, UniProt Q01959). The experiment in a line: Equilibrium dissociation constant (KD) for Competitive binding between [3H]WIN-35428 and the compound at human transporter-hDAT.
Experiment [6] is filed under the species Rattus norvegicus. The experiment can be described thus: Compound was evaluated for Dopamine reuptake inhibition in rat striatal synaptosomes. Type of experiment: functional, Brain.
The target of experiment [7] is T1, Sodium-dependent dopamine transporter. The experiment can be described thus: Equilibrium dissociation constant (KD) for Competitive binding between [3H]WIN-35428 and the compound at human transporter -hDAT.
The target of experiment [8] is Glutamate NMDA receptor. The experiment can be described thus: Compound was evaluated for noncompetitive inhibition of N-methyl-D-aspartate (NMDA) Receptor by the displacement of [3H]MK-801 in rat brain membranes. Type of experiment: cell membranes.

Sequence of Sodium-dependent noradrenaline transporter (P23975 whole entry): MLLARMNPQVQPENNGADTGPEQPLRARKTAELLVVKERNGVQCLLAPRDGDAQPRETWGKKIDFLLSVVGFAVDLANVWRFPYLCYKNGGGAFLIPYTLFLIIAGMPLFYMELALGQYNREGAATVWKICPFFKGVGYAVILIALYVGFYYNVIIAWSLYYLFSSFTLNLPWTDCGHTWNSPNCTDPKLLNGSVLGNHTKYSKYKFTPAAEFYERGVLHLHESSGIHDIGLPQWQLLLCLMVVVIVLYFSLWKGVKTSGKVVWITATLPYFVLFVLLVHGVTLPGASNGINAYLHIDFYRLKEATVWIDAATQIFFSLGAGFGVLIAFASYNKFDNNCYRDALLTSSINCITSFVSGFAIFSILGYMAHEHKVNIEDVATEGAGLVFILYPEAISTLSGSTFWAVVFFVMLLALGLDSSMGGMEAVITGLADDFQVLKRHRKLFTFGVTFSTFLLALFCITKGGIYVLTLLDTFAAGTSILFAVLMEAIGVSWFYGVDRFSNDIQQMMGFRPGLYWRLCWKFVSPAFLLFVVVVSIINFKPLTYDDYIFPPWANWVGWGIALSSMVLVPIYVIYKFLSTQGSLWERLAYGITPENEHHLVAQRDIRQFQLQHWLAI
Sequence of Norepinephrine transporter (Q9WTR4 whole entry): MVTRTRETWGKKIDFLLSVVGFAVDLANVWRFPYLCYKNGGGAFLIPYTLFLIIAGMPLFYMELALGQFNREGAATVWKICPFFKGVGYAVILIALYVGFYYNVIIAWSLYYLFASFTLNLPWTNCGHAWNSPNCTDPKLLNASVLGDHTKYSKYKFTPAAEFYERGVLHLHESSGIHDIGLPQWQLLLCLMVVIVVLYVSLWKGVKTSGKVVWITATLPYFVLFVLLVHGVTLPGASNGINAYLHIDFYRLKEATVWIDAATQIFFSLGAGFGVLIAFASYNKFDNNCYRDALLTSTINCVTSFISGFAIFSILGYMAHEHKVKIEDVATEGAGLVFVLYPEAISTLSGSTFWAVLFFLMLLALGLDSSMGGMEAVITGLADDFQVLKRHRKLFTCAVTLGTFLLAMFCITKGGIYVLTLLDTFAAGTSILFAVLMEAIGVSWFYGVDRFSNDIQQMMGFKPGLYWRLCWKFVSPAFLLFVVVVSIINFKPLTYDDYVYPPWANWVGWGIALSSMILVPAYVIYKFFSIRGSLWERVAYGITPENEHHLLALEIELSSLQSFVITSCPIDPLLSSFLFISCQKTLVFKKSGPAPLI
Sequence of Sodium-dependent dopamine transporter (Rattus norvegicus, UniProt P23977) (P23977 whole entry): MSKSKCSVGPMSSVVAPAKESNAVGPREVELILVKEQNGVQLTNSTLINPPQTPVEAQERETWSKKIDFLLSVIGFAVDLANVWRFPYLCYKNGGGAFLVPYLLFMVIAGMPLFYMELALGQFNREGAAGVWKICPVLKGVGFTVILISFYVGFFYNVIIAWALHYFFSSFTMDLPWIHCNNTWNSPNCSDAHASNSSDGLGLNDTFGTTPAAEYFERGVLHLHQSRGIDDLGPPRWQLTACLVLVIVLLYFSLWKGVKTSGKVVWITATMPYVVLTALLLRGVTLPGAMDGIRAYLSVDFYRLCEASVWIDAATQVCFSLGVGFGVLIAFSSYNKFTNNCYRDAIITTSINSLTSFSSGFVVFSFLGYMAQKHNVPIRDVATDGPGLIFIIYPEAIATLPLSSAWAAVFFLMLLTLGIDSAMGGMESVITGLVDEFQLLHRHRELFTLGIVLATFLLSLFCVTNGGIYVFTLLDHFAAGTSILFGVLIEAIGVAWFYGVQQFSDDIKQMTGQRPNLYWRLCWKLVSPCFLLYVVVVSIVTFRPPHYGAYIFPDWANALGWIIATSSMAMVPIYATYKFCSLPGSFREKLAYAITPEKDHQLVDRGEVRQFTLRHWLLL
T1 sequence (Q01959 whole entry): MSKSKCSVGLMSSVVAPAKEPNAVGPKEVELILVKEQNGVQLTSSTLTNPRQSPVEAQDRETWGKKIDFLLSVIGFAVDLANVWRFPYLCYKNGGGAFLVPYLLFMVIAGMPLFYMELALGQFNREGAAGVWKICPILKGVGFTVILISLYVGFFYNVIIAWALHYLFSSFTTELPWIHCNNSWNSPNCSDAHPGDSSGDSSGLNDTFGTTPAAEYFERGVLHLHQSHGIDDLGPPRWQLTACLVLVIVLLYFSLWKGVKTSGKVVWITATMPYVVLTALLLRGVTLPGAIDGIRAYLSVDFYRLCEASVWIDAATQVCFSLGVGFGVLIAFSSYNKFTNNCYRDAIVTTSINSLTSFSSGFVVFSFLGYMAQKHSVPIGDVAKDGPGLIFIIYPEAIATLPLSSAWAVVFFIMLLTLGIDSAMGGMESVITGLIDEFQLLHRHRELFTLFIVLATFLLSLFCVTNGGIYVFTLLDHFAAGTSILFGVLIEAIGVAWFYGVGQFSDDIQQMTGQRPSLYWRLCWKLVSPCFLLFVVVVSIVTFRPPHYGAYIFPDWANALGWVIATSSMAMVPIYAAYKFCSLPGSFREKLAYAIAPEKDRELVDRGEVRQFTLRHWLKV

As for `COc1ccc([C@H](CN(C)C)[C@@H](O)C2CCCCC2)cc1` (racemic), in experiment [1], the IC50 was over 200 µM. Further, the Ki in experiment [2] is 0.64 µM; in experiment [3], 0.22 µM. Besides, the Kd was 1.8 µM in experiment [4] and 3.5 µM in experiment [5].
In experiment [1], `CN(C)C[C@@H](c1ccc2ccccc2c1)[C@@H](O)c1ccccc1` (racemic) gave an IC50 of 143 µM. Also, the Kd in experiment [5] was determined as 0.07 µM.
As to `Cc1cc(C)c([C@H](O)[C@@H](CN)c2ccccc2)c(C)c1` (racemic), in experiment [1], the IC50 turned out to be 63 µM. For the same molecule, the results for the Ki in experiment [2] and in experiment [3] were 5.31 µM and 8.6 µM, respectively. The Kd turned out to be 22.5 µM in experiment [4] and 0.34 µM in experiment [5].
`NC[C@@H](c1ccc2ccccc2c1)[C@@H](O)c1ccccc1` (racemic) returned an IC50 in experiment [1] of 65 µM. In addition, the Kd in experiment [5] is 0.14 µM.
With `COc1ccc([C@H](CN)[C@@H](O)C2CCCCC2)cc1` (racemic), in experiment [1], the IC50 was 84 µM. Moreover, the Ki in experiment [2] turned out to be 1.46 µM; in experiment [3] it was 0.33 µM. Besides, the dissociation constant (Kd) in experiment [4] was found to be 1.54 µM; in experiment [5], 4.31 µM.
In the same order, the values of `CN(C)C[C@@H](c1ccccc1)[C@@H](O)C(C)(C)C` (racemic) are 121 µM, 1.2 µM, 0.83 µM, 3.43 µM and 21.4 µM.
Consider `NC[C@@H](c1ccccc1)[C@@H](O)c1ccccc1` (racemic), for which, in experiment [1], the IC50 amounted to 5.6 µM. For the same molecule, the Ki in experiment [2] turned out to be 6.6 µM; in experiment [3], 5.78 µM. For the same molecule, the Kd in experiment [4] came to 12.5 µM; in experiment [5], 24 µM.
In the same order, the values of `CN(C)C[C@@H](c1ccc2ccccc2c1)[C@@H](O)C(C)(C)C` (racemic) are 21 µM, 0.06 µM, 0.01 µM, 0.0299 µM and 0.34 µM.
`Cc1cc(C)c([C@H](O)[C@@H](CN(C)C)c2ccccc2)c(C)c1` (racemic): the IC50 in experiment [1] was over 200 µM. Further, the Ki is 4.88 µM in experiment [2] and 8.5 µM in experiment [3]. In addition, the figures for the Kd in experiment [4] and in experiment [5] were 35.8 µM and 42 µM, respectively.
`CC(C)(C)[C@H](O)[C@@H](CN)c1ccc2ccccc2c1` (racemic): the Kd in experiment [6] came out at 0.278 µM; in experiment [4] it was 0.055 µM; in experiment [5] it was 27 µM. Also, the IC50 in experiment [1] came out at 3 µM. Further, the Ki in experiment [2] stood at 0.12 µM.
For the molecule `CC(C)(C)[C@H](O)[C@@H](CN)c1ccccc1` (racemic), in experiment [1], the IC50 was determined as 14 µM. The Ki worked out at 4.57 µM in experiment [2] and 3.8 µM in experiment [3]. Moreover, the equilibrium dissociation constant (Kd) turned out to be 47.9 µM in experiment [4] and 7.26 µM in experiment [5].
For `CN(C)C[C@@H](c1ccccc1)[C@@H](O)c1ccccc1` (racemic), the Ki in experiment [2] is 1.55 µM; in experiment [3], 0.99 µM. Besides, the Kd in experiment [4] turned out to be 2.25 µM; in experiment [7], 12 µM. Further, in experiment [8], the IC50 stood at 47 µM.
Take `CCOc1ccccc1OCC1CNCCO1` (racemic) [VILOXAZINE]: the figures for the inhibitory constant (Ki) in experiment [2] and in experiment [3] were 48 µM and 0.17 µM, respectively. In addition, the Kd in experiment [4] and in experiment [5] was 0.155 µM each time.
In experiment [2], `CCc1nn(CCCN2CCN(c3cccc(Cl)c3)CC2)c(=O)n1CCOc1ccccc1` [NEFAZODONE] yielded a Ki of 2.38 µM.

(Values after ChEMBL document CHEMBL1130764, “Synthesis of a potent wide-spectrum serotonin-, norepinephrine-, dopamine-reuptake inhibitor (SNDRI) and a species-selective dopamine-reuptake inhibitor based on the gamma-amino alcohol functional group” (Bioorg Med Chem Lett, 1998).)
